The target of the experiment is p97 ATPase WT (Homo sapiens (Human), UniProt P55072). Put plainly: p97 ADP-Glo assay. Format: biochemical. The note with it: Table 3; read-out: ADPGlo IC50. From the text:
ADP-Glo™ (Promega Corp.) is a bioluminescent, homogeneous assay that measures ADP formed from a biochemical reactions. Because of its high sensitivity, the assay is suitable for monitoring enzyme activities at very early substrate conversions requiring very low amount of enzymes.
The ADP-Glo assay can be conducted as described in Chou, T.-F.; Bulfer, S. L.; Weihl, C.
p97 ATPase WT, sequence (P55072 whole entry): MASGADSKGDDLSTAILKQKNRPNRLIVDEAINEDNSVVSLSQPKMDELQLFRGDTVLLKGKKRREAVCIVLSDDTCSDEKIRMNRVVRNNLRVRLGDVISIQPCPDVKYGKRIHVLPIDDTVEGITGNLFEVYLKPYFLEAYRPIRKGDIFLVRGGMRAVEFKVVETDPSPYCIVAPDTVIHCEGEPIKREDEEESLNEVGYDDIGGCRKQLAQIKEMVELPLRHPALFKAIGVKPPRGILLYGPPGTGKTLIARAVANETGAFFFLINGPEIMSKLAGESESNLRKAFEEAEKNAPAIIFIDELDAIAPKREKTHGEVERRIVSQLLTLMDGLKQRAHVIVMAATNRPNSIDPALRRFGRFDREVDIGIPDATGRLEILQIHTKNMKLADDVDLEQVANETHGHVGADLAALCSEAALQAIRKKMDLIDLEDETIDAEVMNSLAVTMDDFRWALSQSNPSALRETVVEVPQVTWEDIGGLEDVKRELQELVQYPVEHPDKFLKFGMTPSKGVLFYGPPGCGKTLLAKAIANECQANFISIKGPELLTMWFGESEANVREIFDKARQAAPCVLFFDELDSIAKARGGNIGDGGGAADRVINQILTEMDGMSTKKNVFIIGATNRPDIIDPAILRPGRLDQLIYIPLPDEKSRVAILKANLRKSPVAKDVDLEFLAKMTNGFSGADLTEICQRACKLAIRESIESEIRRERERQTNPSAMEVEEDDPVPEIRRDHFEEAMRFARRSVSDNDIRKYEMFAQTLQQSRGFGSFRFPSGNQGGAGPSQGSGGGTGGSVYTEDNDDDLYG
As for `CC(C)N1CCC(NC2CCN(c3cccc(-c4cc5cc(Cl)ccc5[nH]4)c3)CC2)CC1`, the IC50 was 0.092 µM. For `CC(C)N1CCN(C2(CNC3CCN(c4cccc(-c5cc6cc(C#N)ccc6[nH]5)c4)CC3)COC2)CC1`, the 50% inhibitory concentration (IC50) was found to be 0.11 µM. With `Fc1ccc2[nH]c(-c3cccc(N4CCC(NCc5cccnc5)CC4)c3)cc2c1` the figure was 0.34 µM; with `O=S1(=O)CCN(CCNC2CCN(c3cccc(-c4cc5ccccc5[nH]4)c3)CC2)CC1`, 0.7 µM; with `CN1CCN(C2(CNC3CCN(c4cccc(-c5cc6cc(C#N)ccc6[nH]5)c4)CC3)CCC2)CC1`, 0.026 µM. Under `CC(C)N1CCN(CCNC2CCN(c3cccc(-c4cc5ccc(N)cc5[nH]4)c3)CC2)CC1` stands 5.2 µM. Regarding `CN1CCN(CC2(NC3CCN(c4cccc(-c5cc6ccccc6[nH]5)c4)CC3)CC2)CC1`, the half-maximal inhibitory concentration (IC50) is 0.44 µM.

With `CN1CCN(C2(CNC3CCN(c4cccc(-c5cc6cc(S(C)(=O)=O)ccc6[nH]5)c4)CC3)CCC2)CC1`, the half-inhibitory concentration (IC50) turned out to be 16 µM.

For the molecule `CCOC(=O)Nc1cccc(N2CCC(NCCN3CCN(C(C)C)CC3)CC2)c1`, the IC50 is 1.7 µM. For `CN1CCC(NC2CCN(c3cccc(-c4cc5ccccc5[nH]4)c3)CC2)CC1`, the IC50 turned out to be 0.38 µM.

In the case of `CN1CCN(C(C)(C)CNC2CCN(c3cccc(-c4cc5ccccc5[nH]4)c3)CC2)CC1`, the IC50 was 0.45 µM. As to `CC(C)N1CCN(CCNC2CCN(c3cccc(-c4cc5cc([N+](=O)[O-])ccc5[nH]4)c3)CC2)CC1` [drawing 222], the IC50 turned out to be 0.036 µM.

`Cc1ccc(N2CCC(NCC3(N4CCN(C(C)C)CC4)CCC3)CC2)cc1-c1cc2cc(C#N)ccc2[nH]1`: the half-inhibitory concentration (IC50) was 0.1 µM. For `FC(F)(F)C(c1ccccc1)N1CCN(CCNC2CCN(c3cccc(-c4cc5ccccc5[nH]4)c3)CC2)CC1` (centres unmarked), the IC50 is 17 µM.

For `c1cc(-c2cc3ccccc3[nH]2)cc(N2CCC(NCCN3CCN(CC4CC4)CC3)CC2)c1`, the concentration for half-maximal inhibition (IC50) was found to be 0.17 µM.

Turning to `CC(C)N1CCN(CCNC(=O)CC2CCN(c3cccc(-c4cc5ccccc5[nH]4)c3)CC2)CC1`, the 50% inhibitory concentration (IC50) came to 7.34 µM. `O=C1CN(CCNC2CCN(c3cccc(-c4cc5ccccc5[nH]4)c3)CC2)CCN1`: the IC50 worked out at 0.85 µM.

In the case of `CC(C)(C)OC(=O)N1CCCN(CCNC2CCN(c3cccc(-c4cc5ccccc5[nH]4)c3)CC2)CC1`, the IC50 amounted to 1.1 µM. Regarding `CCCCNC1CCN(c2cccc(-c3cc4ccccc4[nH]3)c2)CC1`, the IC50 amounted to 1.7 µM. With `CC(C)N1CCC(NC2CCN(c3cccc(-c4cc5cc(S(C)(=O)=O)ccc5[nH]4)c3)CC2)CC1` the figure was 20 µM; with `CN1CCN(CCNC2CCN(c3cccc(-c4cc5ccccc5[nH]4)c3)CC2)CC1`, 0.38 µM; with `CC(C)N1CCN(CCNC2CCN(c3cccc(-c4cc5cnccc5[nH]4)c3)CC2)CC1`, 3.8 µM.

As to `CC(C)N1CCN(CCNC2CCN(C(=O)c3cccc(-c4cc5ccccc5[nH]4)c3)CC2)CC1`, the IC50 came out at 13.6 µM. Take `CC(C)N1CCN(C2(CNC3CCN(c4cccc(-c5cc6cc(F)ccc6[nH]5)c4)CC3)CCC2)CC1`: the half-maximal inhibitory concentration (IC50) worked out at 0.13 µM. Under `CCC(C)N1CCN(CCCNC2CCN(c3cccc(-c4cc5ccccc5[nH]4)c3)CC2)CC1` (centres unmarked) stands 0.64 µM; under `Cn1ncnc1CCNC1CCN(c2cccc(-c3cc4cc(F)c(F)cc4[nH]3)c2)CC1`, 2.2 µM; under `CN1CCN(C2(CNC3CCN(c4cccc(-c5cc6ccccc6[nH]5)c4)CC3)CCC2)CC1`, 0.14 µM.

`CC(C)N1CCN(C2CCN(c3cccc(-c4cc5cc(F)ccc5[nH]4)c3)CC2)CC1`: the half-maximal inhibitory concentration (IC50) was 4.3 µM. Under `CN1CCN(CCCNC2CCN(c3cccc(-c4cc5ccccc5[nH]4)c3)CC2)CC1` stands 0.21 µM; under `Cc1ccc(CNC2CCN(c3cccc(-c4cc5ccccc5[nH]4)c3)CC2)o1`, 0.89 µM; under `CC(C)N1CCN(CCNC2CCN(c3cccc(-c4cc5cc(N=[N+]=[N-])ccc5[nH]4)c3)CC2)CC1`, 0.2 µM.

Regarding `CN(C)CCNC1CCN(c2cccc(-c3cc4cc(C#N)ccc4[nH]3)c2)CC1`, the IC50 worked out at 0.46 µM.

Take `CC(C)N1CCN(CCCNC2CCN(c3cccc(-c4cc5ccccc5[nH]4)c3)CC2)CC1`: the half-inhibitory concentration (IC50) stood at 0.37 µM. With `CC(C)N1CCN(CCNC2CCN(c3cccc(-c4cc5ccc([N+](=O)[O-])cc5[nH]4)c3)CC2)CC1` the figure was 4.6 µM. As for `CNC(=O)CCNC1CCN(c2cccc(-c3cc4cc(F)ccc4[nH]3)c2)CC1`, the IC50 worked out at 0.63 µM. For the molecule `CC(C)N1CCN(C(=O)CCNC2CCN(c3cccc(-c4cc5cc(C#N)ccc5[nH]4)c3)CC2)CC1`, the half-maximal inhibitory concentration (IC50) is 0.15 µM.

Turning to `O=C(Nc1ccccn1)C1CCN(c2cccc(-c3cc4cc(F)ccc4[nH]3)c2)CC1`, the IC50 was 9.7 µM.

On to `CC(C)N1CCN(C2(CNC(=O)C3CCN(c4cccc(-c5cc6cc(F)ccc6[nH]5)c4)CC3)CCC2)CC1`, for which the half-maximal inhibitory concentration (IC50) stood at 3.8 µM. In the case of `c1cncc(CNC2CCN(c3cccc(-c4cc5ccccc5[nH]4)c3)CC2)c1`, the IC50 amounted to 0.74 µM. With `CC(C)N1CCN(CCNC2CCN(c3ccc(F)c(-c4cc5ccccc5[nH]4)c3)CC2)CC1` the figure was 0.41 µM; with `N#Cc1ccc2[nH]c(-c3cccc(N4CCC(NCc5cccnc5)CC4)c3)cc2c1`, 0.29 µM. `CC(C)N1CCN(CCNC2CCN(c3cccc(-c4cc5cc(OC(F)(F)F)ccc5[nH]4)c3)CC2)CC1`: the half-inhibitory concentration (IC50) amounted to 3.7 µM. Under `CC(C)N1CCC(NC(=O)C2CCN(c3cccc(-c4cc5cc(F)ccc5[nH]4)c3)CC2)CC1` stands 3.9 µM.

Regarding `CN1CCN(C2(CNC3CCN(c4cccc(-c5cc6ccccc6[nH]5)c4)CC3)CCCCC2)CC1`, the IC50 was 0.26 µM. Under `CC(C)N1CCN(CCNC2CCN(c3cccc(-c4cc5c([nH]4)CCNC5)c3)CC2)CC1` stands 11 µM; under `Cc1ccc(N2CCC(NC3CCN(C(C)C)CC3)CC2)cc1-c1cc2ccccc2[nH]1`, 0.5 µM. In the case of `CC(C)N1CCC(NC2CCN(c3cccc(-c4cc5cc(F)ccc5[nH]4)c3)CC2)CC1`, the IC50 turned out to be 0.049 µM. For `NC(=O)CCNC1CCN(c2cccc(-c3cc4cc(F)ccc4[nH]3)c2)CC1`, the IC50 was 0.76 µM. Under `Cc1ccc(N2CCC(NCCc3ncnn3C)CC2)cc1-c1cc2ccccc2[nH]1` stands 4.5 µM. Consider `[N-]=[N+]=Nc1cccc(CNC2CCN(c3cccc(-c4cc5cc(F)ccc5[nH]4)c3)CC2)c1`, for which the IC50 came to 0.68 µM. With `CC(C)N1CCN(CCNC2CCN(c3ccc4c(c3)-c3[nH]c5ccccc5c3CC4)CC2)CC1` the figure was 0.37 µM.

In the case of `c1ccc(CNC2CCN(c3cccc(-c4cc5ccccc5[nH]4)c3)CC2)cc1`, the IC50 turned out to be 0.96 µM. With `c1ccc(CCNC2CCN(c3cccc(-c4cc5ccccc5[nH]4)c3)CC2)nc1` the figure was 0.72 µM. Under `CN1CCC(NC2CCN(c3cncc(-c4cc5ccccc5[nH]4)c3)CC2)CC1` stands 25 µM; under `CN1CCC(NC2CCN(c3cccc(-c4cc5cc(C#N)ccc5[nH]4)c3)CC2)CC1`, 0.13 µM; under `Cc1ccc(N2CCC(NCC3(N4CCN(C(C)C)CC4)CCC3)CC2)cc1-c1cc2cc(F)ccc2[nH]1`, 0.32 µM. As to `CC(C)N1CCN(CCNC2CCN(c3cccc(-c4cc5ccc(F)cc5[nH]4)c3)CC2)CC1`, the half-inhibitory concentration (IC50) was 0.54 µM. `Cc1ccc(N2CCC(NCCN3CCN(C(C)C)CC3)CC2)cc1-c1[nH]c2ccccc2c1C`: the concentration for half-maximal inhibition (IC50) is 23 µM.

For `CN1CCC(NC2CCN(c3cccc(-c4cc5cc(F)ccc5[nH]4)c3)CC2)CC1`, the half-maximal inhibitory concentration (IC50) amounted to 0.18 µM.

The IC50 is the concentration that inhibits the measured activity by half.

For the origin of these results see patent US11247985B2, “Phenyl indole allosteric inhibitors of P97 ATPase” (University of Pittsburgh—Of the Commonwealth System of …, priority 2015, dated 2022).
